Measured values reported in patent publication US6403647B1, “Pulsed administration of compositions for the treatment of blood disorders” (priority 1996, dated 2002).

How the values were obtained:
Bfu-e = test: Erythroid colony (Bfu-e) proliferation with maximal growth factors, normal subject; type: cell-based, human; conditions: 0.1 mM
Excerpt: Erythroid cells were obtained, as described in Example 1, from a normal subject and cultured on semi-solid medium in the presence of a maximal amount of erythroid growth factors including IL-6, GM-CSF, SCF and EPO. Erythroid proliferation in the presence of these factors is expected to be maximal and, therefore, any increases observed would be significant.

[1] = Total hemoglobin in phlebotomized anemic baboons, continuous versus pulse therapy; type: in vivo, baboon; conditions: continuous, 700 mg/kg/day for 5 days; phlebotomized baboon; from 6.7
Description: Therapy was administered to anemic baboons who were being phlebotomized 5-10 ml/kg of blood per day on a continuous basis. EPO was administered daily at 300 U/kg/dose. Arginine butyrate was administered daily at 700 mg/kg/day for 5 days and phenoxyacetic acid at 500 mg/kg/day daily over 8 hours and at 1000 mg/kg/day for 24 hours/day daily for five days each. […] With continuous arginine butyrate treatment, hemoglobin remained essentially stable at 6.7 to 6.9 gram/dl. With continuous treatment with phenoxyacetic acid, hemoglobin levels remained stable at 7.0 gram/dl to 6.9 gram/dl during 8 hour therapy and declined from 6.8 to 4.5 when the drug was given for 24 hours per day for 5 days.

[2] = tested on: system A transport of amino acids; test: Uptake of 3H-methyl-aminoisobutyric acid (MeAIB) into erythroblasts; type: cell-based
Description: Erythroblasts were tested for alterations in uptake of radio-labelled amino acid (^3H-methyl-aminoisobutyric acid; MeAIB) in the presence of AB (arginine butyrate), AMHCA (α-methylhydrocinnamic acid), PAA (phenoxyacetic acid), and IBT (isobutyramide), each at 2.0 mM.

[3] = DNA fragmentation assays (cell viability); type: cell-based
Excerpt: Normal cell viability, the viability of an untransformed or uninfected cell, can be determined from analyzing the effects of the composition on one or more biological processes of the cell. Detrimental interference with one or more of these cellular processes becomes significant when the process becomes abnormal. Examples of quantitatable and qualifiable biological processes include the processes of cell division, protein synthesis, nucleic acid (DNA or RNA) synthesis, nucleic acid (principally DNA) fragmentation and apoptosis. Others processes include specific enzyme activities, the activities of the cellular transportation systems such as the transportation of amino acids by system A (neutral), system B (acidic) or system C (basic), and the expression of a cell surface protein. […] Abnormal cell division, for example, can be mitosis which occurs too rapidly, as in a malignancy, or unstably, resulting in programmed cell death or apoptosis, detected by increased DNA degradation. The determination of abnormal cell viability can be made on comparison with untreated control cells. Compositions preferably increase normal cell viability. Increased cell viability can be determined by those of ordinary skill in the art using, for example, DNA fragmentation analysis. […] Determinations of increased or decreased viability can also be concluded from an analysis of the results of multiple different assays. Where multiple tests provide conflicting results, accurate conclusions can still be drawn by those of ordinary skill based upon the cell type, the correctness or correlation of the tests with actual conditions and the type of composition.
Patients with blood disorders are typically quite infirm with, for example, iron damaged organs and systems. Most treatments further tax the patient's already frail health in an effort to combat the disorder.

Half-life = conditions: in vivo

Substance: arginine butyrate
- Bfu-e colonies, % of control (Bfu-e): 16 % of control
- total hemoglobin after treatment [1]: 6.9 gram/dl
- amino acid (MeAIB) uptake / transport ([2]; 2.0 mM, relative to untreated fetal liver erythroid cells): inhibited amino acid uptake
- inhibition of MeAIB uptake ([2]; after 60 and 120 minutes): most significant
- cell viability in DNA fragmentation assays [3]: decrease cell viability
- half-life (Half-life): 15 min
